Data from patent US9434711B2 (Janssen Pharmaceutica, NV, priority 2007, dated 2016).

Target: canine TRPM8 (Canis lupus familiaris, UniProt Q1A7N1)
Experiment: In Vitro Canine TRPM8 Functional Assay (Ca2+ fluorescence, icilin activation)
Format: cell-based
Details: for IC50: HEK293 cells stably expressing canine TRPM8, icilin activation, eight-point dose-response, read-out: IC50; for inhibition at 0.5 µM: compound at 0.5 μM, read-out: % Inh @ 0.5; for inhibition at 0.5 µM / inhibition at 0.2 µM: canine TRPM8, icilin activation; for inhibition at 0.2 µM: compound at 0.2 μM, read-out: % Inh @ 0.2
Summary of the method: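 HEK293 cells stably expressing canine TRPM8 were loaded with Calcium 3 dye (35 min at 37 °C, then 25 min at room temperature). Compound was added and Ca2+ fluorescence was read for 5 min before icilin at a concentration giving about 80% maximal response. EC50/IC50 came from eight-point dose-response curves, quadruplicate wells.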

Chain of canine TRPM8 (Q1A7N1 1-1104): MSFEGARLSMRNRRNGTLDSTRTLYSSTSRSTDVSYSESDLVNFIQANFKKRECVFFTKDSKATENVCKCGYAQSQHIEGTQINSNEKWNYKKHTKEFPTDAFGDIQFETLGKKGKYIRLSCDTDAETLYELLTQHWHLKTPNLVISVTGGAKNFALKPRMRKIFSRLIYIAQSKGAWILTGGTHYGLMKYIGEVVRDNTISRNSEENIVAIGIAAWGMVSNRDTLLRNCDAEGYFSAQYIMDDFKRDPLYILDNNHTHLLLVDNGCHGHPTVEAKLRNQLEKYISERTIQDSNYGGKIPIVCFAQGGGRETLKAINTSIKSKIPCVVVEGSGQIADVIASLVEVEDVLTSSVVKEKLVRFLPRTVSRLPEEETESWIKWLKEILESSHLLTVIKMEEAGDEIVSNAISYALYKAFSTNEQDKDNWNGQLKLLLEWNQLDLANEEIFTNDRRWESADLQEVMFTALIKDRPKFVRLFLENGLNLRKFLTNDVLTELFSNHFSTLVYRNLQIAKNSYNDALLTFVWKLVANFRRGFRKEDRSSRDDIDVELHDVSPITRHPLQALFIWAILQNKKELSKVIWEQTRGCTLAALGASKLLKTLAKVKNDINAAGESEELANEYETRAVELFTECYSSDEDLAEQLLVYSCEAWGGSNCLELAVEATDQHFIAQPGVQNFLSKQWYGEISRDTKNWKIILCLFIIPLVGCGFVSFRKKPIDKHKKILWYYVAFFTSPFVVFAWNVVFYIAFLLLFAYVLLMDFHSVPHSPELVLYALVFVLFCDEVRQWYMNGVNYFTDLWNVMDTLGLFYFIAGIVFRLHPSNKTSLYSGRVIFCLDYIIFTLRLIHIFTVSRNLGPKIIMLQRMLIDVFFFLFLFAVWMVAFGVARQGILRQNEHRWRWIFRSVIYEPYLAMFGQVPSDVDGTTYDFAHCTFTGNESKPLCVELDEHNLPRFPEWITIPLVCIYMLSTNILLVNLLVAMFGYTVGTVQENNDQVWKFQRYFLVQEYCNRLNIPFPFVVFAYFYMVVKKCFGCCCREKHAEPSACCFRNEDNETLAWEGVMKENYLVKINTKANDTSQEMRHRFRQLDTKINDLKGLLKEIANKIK

Work on `CC(C)(C)OC(=O)NCCN(c1sc2ccccc2c1Cl)S(=O)(=O)c1ccccc1` [Compound 86, N-(3-Chloro-benzo[b]thiophen-2-yl)-N-[2-(carbo-tert-butoxyamino)ethyl]-benzenesulfonamide] yielded an IC50 of 53 nM and an inhibition at 0.5 µM of 101%.
With `CN(C)CCN(c1sc2ccccc2c1Cl)S(=O)(=O)c1ccccc1` [Compound 87, N-(3-Chloro-benzo[b]thiophen-2-yl)-N-(2-dimethylamino-ethyl)-benzenesulfonamide] the IC50 was 170 nM and the inhibition at 0.5 µM was 94%.
`CS(=O)(=O)CCN(c1sc2ccccc2c1Cl)S(=O)(=O)c1ccccc1` [Compound 88, N-(3-Chloro-benzo[b]thiophen-2-yl)-N-(2-methanesulfonyl-ethyl)-benzenesulfonamide] showed an IC50 of 261 nM and an inhibition at 0.5 µM of 88%.
`CC(C)(C)OC(=O)N1CCCC1CN(c1sc2ccccc2c1Cl)S(=O)(=O)c1ccccc1` (stereo not drawn) [Compound 89, N-(3-Chloro-benzo[b]thiophen-2-yl)-N-{[1-(carbo-tert-butoxy)pyrrolidin-2-yl]-methyl}-benzenesulfonamide] gave an inhibition at 0.5 µM of 96%.
`CC(C)(C)OC(=O)N1CCC(CN(c2sc3ccccc3c2Cl)S(=O)(=O)c2ccccc2)CC1` [Compound 90, N-(3-Chloro-benzo[b]thiophen-2-yl)-N-{[1-(carbo-tert-butoxy)piperidin-4-yl]-methyl}-benzenesulfonamide] gave an IC50 of 21 nM and an inhibition at 0.5 µM of 99%.
With `O=C1NCCN1CCN(c1sc2ccccc2c1Cl)S(=O)(=O)c1ccccc1` [Compound 91, N-(3-Chloro-benzo[b]thiophen-2-yl)-N-[2-(2-oxo-imidazolidin-1-yl)-ethyl]-benzenesulfonamide] the inhibition at 0.5 µM was 33%.
`O=S(=O)(c1ccccc1)N(CCN1CCOCC1)c1sc2ccccc2c1Cl` [Compound 92, N-(3-Chloro-benzo[b]thiophen-2-yl)-N-(2-morpholin-4-yl-ethyl)-benzenesulfonamide] gave an IC50 of 68.2 nM and an inhibition at 0.2 µM of 79%.
Work on `COC(=O)[C@H](C)CN(c1sc2ccccc2c1C)S(=O)(=O)c1ccccc1` [Compound 93, N-(3-Methyl-benzo[b]thiophen-2-yl)-N-[2(R)-methyl-2-carbomethoxy-ethyl]-benzenesulfonamide] yielded an IC50 of 11 nM and an inhibition at 0.2 µM of 98%.
With `COC(=O)[C@@H](C)CN(c1sc2ccccc2c1C)S(=O)(=O)c1ccccc1` [Compound 94, N-(3-Methyl-benzo[b]thiophen-2-yl)-N-[2(S)-methyl-2-carbomethoxy-ethyl]-benzenesulfonamide] the IC50 was 18 nM and the inhibition at 0.2 µM was 98%.
`Cc1c(N(CCN2CCOCC2)S(=O)(=O)c2ccccc2)sc2ccccc12` [Compound 95, N-(3-Methyl-benzo[b]thiophen-2-yl)-N-(2-morpholin-4-yl-ethyl)-benzenesulfonamide] gave an IC50 of 6 nM and an inhibition at 0.2 µM of 97%.
`Cc1c(N(CCN2CCCCC2)S(=O)(=O)c2ccccc2)sc2ccccc12` [Compound 96, N-(3-Methyl-benzo[b]thiophen-2-yl)-N-(2-piperidin-1-yl-ethyl)-benzenesulfonamide] gave an IC50 of 4 nM and an inhibition at 0.2 µM of 98%.
`Cc1c(N(CC2CC2)S(=O)(=O)c2ccccc2)sc2ccccc12` [Compound 97, N-(Cyclopropylmethyl)-N-(3-methyl-benzo[b]thiophen-2-yl)-benzenesulfonamide] gave an IC50 of 14 nM and an inhibition at 0.2 µM of 96%.
In the case of `CSCCN(c1sc2ccccc2c1C)S(=O)(=O)c1ccccc1` [Compound 98, N-(3-Methyl-benzo[b]thiophen-2-yl)-N-(2-methylsulfanyl-ethyl)-benzenesulfonamide], the IC50 is reported as 15 nM and the inhibition at 0.2 µM is reported as 97%.
With `COCCN(c1sc2ccccc2c1C)S(=O)(=O)c1ccccc1` [Compound 99, N-(2-Methoxy-ethyl)-N-(3-methyl-benzo[b]thiophen-2-yl)-benzenesulfonamide] the IC50 was 18 nM and the inhibition at 0.2 µM was 99%.
In the case of `Cc1c(N(CCOC(C)(C)C)S(=O)(=O)c2ccccc2)sc2ccccc12` [Compound 100, N-(2-tert-Butoxy-ethyl)-N-(3-methyl-benzo[b]thiophen-2-yl)-benzenesulfonamide], the IC50 is reported as 6.8 nM and the inhibition at 0.2 µM is reported as 103%.
`COC(=O)CN(c1sc2ccccc2c1C)S(=O)(=O)c1ccccc1` [Compound 101, N-(3-Methyl-benzo[b]thiophen-2-yl)-N-(carbomethoxy-methyl)-benzenesulfonamide] showed an IC50 of 30.5 nM and an inhibition at 0.2 µM of 101%.
`Cc1c(N(CC(F)F)S(=O)(=O)c2ccccc2)sc2ccccc12` [Compound 102, N-(2,2-Difluoro-ethyl)-N-(3-methyl-benzo[b]thiophen-2-yl)-benzenesulfonamide] was tested, and the IC50 was 40.2 nM and the inhibition at 0.2 µM was 98%.
With `Cc1c(N(CC2CCCN2C(=O)OC(C)(C)C)S(=O)(=O)c2ccccc2)sc2ccccc12` (stereo not drawn) [Compound 103, N-(3-Methyl-benzo[b]thiophen-2-yl)-N-{[1-(carbo-tert-butoxy)pyrrolidin-2-yl]-methyl}-benzenesulfonamide] the IC50 was 90.8 nM and the inhibition at 0.2 µM was 80%.
`Cc1c(N(CCc2ccccc2)S(=O)(=O)c2ccccc2)sc2ccccc12` [Compound 104, N-(3-Methyl-benzo[b]thiophen-2-yl)-N-(phenethyl)-benzenesulfonamide] was tested, and the IC50 was 8.9 nM and the inhibition at 0.2 µM was 98%.
Work on `CCS(=O)(=O)N(CCOC)c1sc2ccccc2c1C` [Compound 105, N-(2-Methoxy-ethyl)-N-(3-methyl-benzo[b]thiophen-2-yl)-ethanesulfonamide] yielded an inhibition at 0.2 µM of 20%.
With `CCS(=O)(=O)N(CCC(F)(F)F)c1sc2ccccc2c1C` [Compound 106, N-(3-Methyl-benzo[b]thiophen-2-yl)-N-(3,3,3-trifluoro-propyl)-ethanesulfonamide] the IC50 was 19 nM and the inhibition at 0.2 µM was 93%.
Compound `CC#CCCN(c1sc2ccccc2c1C)S(=O)(=O)CC` [Compound 107, N-(3-Methyl-benzo[b]thiophen-2-yl)-N-(pent-3-ynyl)-ethanesulfonamide] has an inhibition at 0.2 µM of 72%.
Compound `CCS(=O)(=O)N(CCSC)c1sc2ccccc2c1C` [Compound 108, N-(3-Methyl-benzo[b]thiophen-2-yl)-N-(2-methylsulfanyl-ethyl)-ethanesulfonamide] has an inhibition at 0.2 µM of 71%.
`CCS(=O)(=O)N(C[C@@H]1CCC(=O)N1)c1sc2ccccc2c1C` [Compound 109, N-(3-Methyl-benzo[b]thiophen-2-yl)-N-(5-oxo-(S)-pyrrolidin-2-ylmethyl)-ethanesulfonamide] was tested, and the inhibition at 0.2 µM was 14%.
For `CCS(=O)(=O)N(CCOC(C)(C)C)c1sc2ccccc2c1C` [Compound 110, N-(2-tert-Butoxy-ethyl)-N-(3-methyl-benzo[b]thiophen-2-yl)-ethanesulfonamide], the IC50 was 7.2 nM and the inhibition at 0.2 µM was 97%.
`CCS(=O)(=O)N(CC(F)F)c1sc2ccccc2c1C` [Compound 111, N-(2,2-Difluoro-ethyl)-N-(3-methyl-benzo[b]thiophen-2-yl)-ethanesulfonamide] showed an IC50 of 92 nM and an inhibition at 0.2 µM of 68%.
Compound `CCS(=O)(=O)N(CC1CC1)c1sc2ccccc2c1C` [Compound 112, N-(Cyclopropylmethyl)-N-(3-methyl-benzo[b]thiophen-2-yl)-ethanesulfonamide] has an IC50 of 30.2 nM and an inhibition at 0.2 µM of 95%.
For `CCS(=O)(=O)N(CCN1CCOCC1)c1sc2ccccc2c1C` [Compound 113, N-(3-Methyl-benzo[b]thiophen-2-yl)-N-(2-morpholin-4-yl-ethyl)-ethanesulfonamide], the inhibition at 0.2 µM was 19%.
`CCS(=O)(=O)N(CC1CCCN1C(=O)OC(C)(C)C)c1sc2ccccc2c1C` (stereo not drawn) [Compound 114, N-(3-Methyl-benzo[b]thiophen-2-yl)-N-{[1-(carbo-tert-butoxy)pyrrolidin-2-yl]-methyl}-ethanesulfonamide] showed an IC50 of 51.1 nM and an inhibition at 0.2 µM of 93%.
In the case of `O=S(=O)(c1ccccc1)N(CCc1ccccc1)c1cc2ccccc2s1` [Compound 115, N-(Benzo[b]thiophen-2-yl)-N-(phenethyl)-benzenesulfonamide], the IC50 is reported as 79.5 nM and the inhibition at 0.5 µM is reported as 95%.
Compound `C=CCN(c1cc2ccccc2s1)S(=O)(=O)c1ccccc1` [Compound 116, N-(Allyl)-N-(benzo[b]thiophen-2-yl)-benzenesulfonamide] has an IC50 of 102 nM and an inhibition at 0.5 µM of 98%.
Work on `CCCCN(c1cc2ccccc2s1)S(=O)(=O)c1ccccc1` [Compound 117, N-(Benzo[b]thiophen-2-yl)-N-(butyl)-benzenesulfonamide] yielded an inhibition at 0.5 µM of 99%.
`O=S(=O)(c1ccccc1)N(CC1CCCCC1)c1cc2ccccc2s1` [Compound 118, N-(Benzo[b]thiophen-2-yl)-N-(cyclohexylmethyl)-benzenesulfonamide] showed an IC50 of 48 nM and an inhibition at 0.5 µM of 100%.
`O=S(=O)(c1ccccc1)N(c1cc2ccccc2s1)C1CCCCC1` [Compound 119, N-(Benzo[b]thiophen-2-yl)-N-(cyclohexyl)-benzenesulfonamide] gave an IC50 of 134 nM and an inhibition at 0.5 µM of 93%.
For `CSCCN(c1cc2ccccc2s1)S(=O)(=O)c1ccccc1` [Compound 120, N-(Benzo[b]thiophen-2-yl)-N-(2-methylsulfanyl-ethyl)-benzenesulfonamide], the IC50 was 156 nM and the inhibition at 0.2 µM was 75%.
In the case of `CCCCN(c1sc2ccccc2c1C(C)=O)S(=O)(=O)CC` [Compound 121, N-(3-Acetyl-benzo[b]thiophen-2-yl)-N-(butyl)-ethanesulfonamide], the IC50 is reported as 35 nM and the inhibition at 0.2 µM is reported as 86%.
For `CCS(=O)(=O)N(CC1CC1)c1sc2ccccc2c1C(C)=O` [Compound 122, N-(3-Acetyl-benzo[b]thiophen-2-yl)-N-(cyclopropylmethyl)-ethanesulfonamide], the inhibition at 0.2 µM was 23%.
With `CCS(=O)(=O)N(CCOC(C)(C)C)c1sc2ccccc2c1C(C)=O` [Compound 123, N-(3-Acetyl-benzo[b]thiophen-2-yl)-N-(2-tert-butoxy-ethyl)-ethanesulfonamide] the inhibition at 0.2 µM was 60%.
